Assay results published in patent publication US5246929A, “Naphtho thiazine (or oxaline) derivatives and preparations thereof” (Tanabe Seiyaku Co., Ltd., priority 1990, dated 1993).
Where a name gives a salt, the structure may show the parent alone.

How the values were obtained:
Format in all cases: in vivo
[1] = tested on: cerebral anoxia induced by potassium cyanide; assay: Activity for protecting cerebral anoxia induced by potassium cyanide (survival time); settings: 10 mg/kg orally, mice; potassium cyanide 2.4 mg/kg tail vein one hour later
mice = assay: Acute oral toxicity in mice; settings: 500 mg/kg orally, 7 days
Source text: The compounds (I) of this invention can inhibit the calcium entrance into the cerebral synaptosome and show excellent central calcium antagonistic activity and/or excellent calcium antagonistic activity in cerebral blood vessel, and can be used for the treatment and prophylaxis of cerebral diseases due to cerebral blood flow disorder at acute and chronic periods, for example, subarachnoid hemorrhage, cerebral infarction, etc. The compounds (I) of this invention have also an activity for protecting cerebral neurocyte. For example, when 2-(4-chlorophenyl)-4-(diethylamino)acetyl-3,4-dihydro-2H-1,4-benzothiazinewas intraperitoneally administered to evanescent cerebral ischemic rats with ligating four vessels in a dose of 1.5 mg/kg twice a day for four days, it increased the number of normal pyramidal cells at hippocampul CA1 region in about 90% in comparison with the non-medicated group. Accordingly, the compounds (I) of this invention can effectively be used for the prophylaxis, treatment and amelioration of sequelae of cerebral neurocyte dyscrasia, for example, disturbances of consciousness (e.g. somnolenz, sopor, coma, stupor, clouding of consciousness, etc.), motor paralysis (e.g. parkinsonism, etc.), cerebral neuropathy (e.g. dysuria, etc.), speech and language disorders (e.g. articulation disorders, aphasia, semantic aphasia, etc.), sensitive disorders (e.g. pain, sysesthesia, heat sensibility disorder, etc.), psychological disorders (e.g. dementia, hallucination, delusion, delirium, poriomania, melancholia, neurosis, emotional incontinence, etc.), and the like, and further the prophylaxis of palindromia and also the prophylaxis of exacerbation and progression of the symptoms. […] In addition, the compounds (I) of this invention have low toxicity and has high safety.

[2] = tested on: normal pyramidal cells at hippocampul CA1 region; assay: Number of normal pyramidal cells in evanescent cerebral ischemic rats with ligating four vessels; settings: 1.5 mg/kg intraperitoneally twice a day for four days, four vessels ligated
Source text: The compounds (I) of this invention can inhibit the calcium entrance into the cerebral synaptosome and show excellent central calcium antagonistic activity and/or excellent calcium antagonistic activity in cerebral blood vessel, and can be used for the treatment and prophylaxis of cerebral diseases due to cerebral blood flow disorder at acute and chronic periods, for example, subarachnoid hemorrhage, cerebral infarction, etc. The compounds (I) of this invention have also an activity for protecting cerebral neurocyte. For example, when 2-(4-chlorophenyl)-4-(diethylamino)acetyl-3,4-dihydro-2H-1,4-benzothiazinewas intraperitoneally administered to evanescent cerebral ischemic rats with ligating four vessels in a dose of 1.5 mg/kg twice a day for four days, it increased the number of normal pyramidal cells at hippocampul CA1 region in about 90% in comparison with the non-medicated group. […]

Q: With “4-(dimethylamino)acetyl-2-(4-fluorophenyl)-3,4-dihydro-2H-1,4-benzothiazine oxalate [Example 1]” as the compound, how does the “Prolonging rate of survival time” value [1] read?
A: The value was 62%.

Q: How did the mortality of mice (mice) turn out when `CCN(CC)CC(=O)N1CC(c2ccc(Cl)cc2)Sc2ccccc21` (centres unmarked) [2-(4-chlorophenyl)-4-(diethylamino)acetyl-3,4-dihydro-2H-1,4-benzothiazineoxalate] was run?
A: The mortality of mice was “no mouse died even after 7 days”.

Q: Which “increase of the number of normal pyramidal cells at hippocampul CA1 region in comparison with the non-medicated group” value [2] does the source give for `CCN(CC)CC(=O)N1CC(c2ccc(Cl)cc2)Sc2ccccc21` (centres unmarked) [2-(4-chlorophenyl)-4-(diethylamino)acetyl-3,4-dihydro-2H-1,4-benzothiazine] here?
A: Its value is “about 90%”.

Q: How did the mortality of mice (mice) turn out when `CCN(CC)CC(=O)N1CC(c2ccc(Cl)cc2)Sc2ccc3ccccc3c21` (centres unmarked) [3-(4-chlorophenyl)-1-(diethylamino)acetyl-2,3-dihydro-1H-naphtho[2,1-b][1,4]thiazine oxalate] was run?
A: The mortality of mice was “no mouse died even after 7 days”.

Q: With `CN(C)CCCN1C(=O)C(c2cccc(C(F)(F)F)c2)Sc2ccc3ccccc3c21.O=C(O)C(=O)O` (centres unmarked) [1-[3-(dimethylamino)propyl]-3-(3-trifluoromethylphenyl)-1H-naphtho[2,1-b][1,4]thiazin-2(3H)-one oxalate] as the compound, how does the mortality of mice (mice) read?
A: Its mortality of mice is “no mouse died even after 7 days”.
